Active and inactive are the calls of the source. The calls are words filed in the database; no cut-off is given here.
Key:
[1] = target: Calcium/calmodulin-dependent protein kinase kinase 1 (Homo sapiens) (UniProt Q8N5S9); details: Compound concentration 100.0 nM
[2] = system: Mast/stem cell growth factor receptor Kit (Homo sapiens), P10721 [V559D,V654A]; details: Compound concentration 100.0 nM
[3] = system: Epidermal growth factor receptor (Homo sapiens), P00533 [G719S]; details: Compound concentration 100.0 nM
[4] = target: Serine/threonine-protein kinase Nek2 (Homo sapiens) (UniProt P51955); details: Compound concentration 100.0 nM
[5] = system: Phosphatidylinositol 4,5-bisphosphate 3-kinase catalytic subunit alpha isoform (Homo sapiens), P42336 [H1047L]; details: Compound concentration 100.0 nM
[6] = target: Dual specificity mitogen-activated protein kinase kinase 5 (Homo sapiens) (UniProt Q13163); details: Compound concentration 100.0 nM
[7] = target: 5-hydroxytryptamine receptor 5A (Homo sapiens) (UniProt P47898); details: Compound concentration 10.0 uM
[8] = system: eIF-2-alpha kinase GCN2 (Homo sapiens), Q9P2K8 [S808G]; details: Compound concentration 100.0 nM
[9] = target: SNF-related serine/threonine-protein kinase (Homo sapiens) (UniProt Q9NRH2); details: Compound concentration 100.0 nM
[10] = target: Tyrosine-protein kinase SYK (Homo sapiens, UniProt P43405); assay: Human SKY enzyme assay
[11] = target: Casein kinase II subunit alpha (Homo sapiens) (UniProt P68400); details: Compound concentration 100.0 nM
[12] = target: Casein kinase I isoform alpha (Homo sapiens) (UniProt P48729); details: Compound concentration 100.0 nM
[13] = target: Tyrosine-protein kinase Tec (Homo sapiens) (UniProt P42680); details: Compound concentration 100.0 nM
[14] = target: Macrophage-stimulating protein receptor (Homo sapiens) (UniProt Q04912); details: Compound concentration 100.0 nM
[15] = target: Glycogen synthase kinase-3 alpha (Homo sapiens) (UniProt P49840); details: Compound concentration 100.0 nM
[16] = target: Protein kinase C epsilon type (Homo sapiens) (UniProt Q02156); details: Compound concentration 100.0 nM
[17] = target: Platelet-derived growth factor receptor alpha (Homo sapiens) (UniProt P16234); details: Compound concentration 100.0 nM
[18] = target: Serine/threonine-protein kinase MAK (Homo sapiens) (UniProt P20794); details: Compound concentration 100.0 nM
[19] = target: Phosphorylase b kinase regulatory subunit alpha, liver isoform (Homo sapiens) (UniProt P46019); details: Compound concentration 100.0 nM
[20] = target: Calcium/calmodulin-dependent protein kinase type II subunit beta (Homo sapiens) (UniProt Q13554); details: Compound concentration 100.0 nM
[21] = target: AP2-associated protein kinase 1 (Homo sapiens) (UniProt Q2M2I8); details: Compound concentration 100.0 nM
[22] = target: Ribosomal protein S6 kinase alpha-1 (Homo sapiens) (UniProt Q15418); details: Compound concentration 100.0 nM
[23] = target: Discoidin domain-containing receptor 2 (Homo sapiens) (UniProt Q16832); details: Compound concentration 100.0 nM
[24] = target: RAC-beta serine/threonine-protein kinase (Homo sapiens) (UniProt P31751); details: Compound concentration 100.0 nM
[25] = target: Calcium/calmodulin-dependent protein kinase type II subunit delta (Homo sapiens) (UniProt Q13557); details: Compound concentration 100.0 nM
[26] = target: Alpha-1D adrenergic receptor (Homo sapiens) (UniProt P25100); details: Compound concentration 10.0 uM
[27] = target: Serine/threonine-protein kinase DCLK1 (Homo sapiens) (UniProt O15075); details: Compound concentration 100.0 nM
[28] = target: Calcium/calmodulin-dependent protein kinase type 1D (Homo sapiens) (UniProt Q8IU85); details: Compound concentration 100.0 nM
[29] = target: Calcium/calmodulin-dependent protein kinase type 1 (Homo sapiens) (UniProt Q14012); details: Compound concentration 100.0 nM
[30] = target: Inhibitor of nuclear factor kappa-B kinase subunit beta (Homo sapiens) (UniProt O14920); details: Compound concentration 100.0 nM
[31] = target: Microtubule-associated serine/threonine-protein kinase 1 (Homo sapiens) (UniProt Q9Y2H9); details: Compound concentration 100.0 nM
[32] = system: Proto-oncogene tyrosine-protein kinase receptor Ret (Homo sapiens), P07949 [V804M]; details: Compound concentration 100.0 nM
[33] = target: Serine/threonine-protein kinase Sgk1 (Homo sapiens) (UniProt O00141); details: Compound concentration 100.0 nM
[34] = target: Mitogen-activated protein kinase kinase kinase 19 (Homo sapiens) (UniProt Q56UN5); details: Compound concentration 100.0 nM
[35] = target: Serine/threonine-protein kinase Nek4 (Homo sapiens) (UniProt P51957); details: Compound concentration 100.0 nM
[36] = target: Tyrosine-protein kinase CSK (Homo sapiens) (UniProt P41240); details: Compound concentration 100.0 nM
[37] = target: Casein kinase I isoform gamma-3 (Homo sapiens) (UniProt Q9Y6M4); details: Compound concentration 100.0 nM
[38] = target: Dual specificity protein kinase CLK1 (Homo sapiens) (UniProt P49759); details: Compound concentration 100.0 nM
[39] = target: Mast/stem cell growth factor receptor Kit (Homo sapiens) (UniProt P10721); details: Compound concentration 100.0 nM
[40] = system: Tyrosine-protein kinase ABL1 (Homo sapiens), P00519 [M351T]; details: Compound concentration 100.0 nM
[41] = target: Tyrosine-protein kinase ABL2 (Homo sapiens) (UniProt P42684); details: Compound concentration 100.0 nM
[42] = target: Bone morphogenetic protein receptor type-1A (Homo sapiens) (UniProt P36894); details: Compound concentration 100.0 nM
[43] = target: Inhibitor of nuclear factor kappa-B kinase subunit epsilon (Homo sapiens) (UniProt Q14164); details: Compound concentration 100.0 nM
[44] = target: Serine/threonine-protein kinase WNK2 (Homo sapiens) (UniProt Q9Y3S1); details: Compound concentration 100.0 nM
[45] = system: Mast/stem cell growth factor receptor Kit (Homo sapiens), P10721 [L576P]; details: Compound concentration 100.0 nM

Chain of SNF-related serine/threonine-protein kinase (Homo sapiens) (Q9NRH2 whole entry): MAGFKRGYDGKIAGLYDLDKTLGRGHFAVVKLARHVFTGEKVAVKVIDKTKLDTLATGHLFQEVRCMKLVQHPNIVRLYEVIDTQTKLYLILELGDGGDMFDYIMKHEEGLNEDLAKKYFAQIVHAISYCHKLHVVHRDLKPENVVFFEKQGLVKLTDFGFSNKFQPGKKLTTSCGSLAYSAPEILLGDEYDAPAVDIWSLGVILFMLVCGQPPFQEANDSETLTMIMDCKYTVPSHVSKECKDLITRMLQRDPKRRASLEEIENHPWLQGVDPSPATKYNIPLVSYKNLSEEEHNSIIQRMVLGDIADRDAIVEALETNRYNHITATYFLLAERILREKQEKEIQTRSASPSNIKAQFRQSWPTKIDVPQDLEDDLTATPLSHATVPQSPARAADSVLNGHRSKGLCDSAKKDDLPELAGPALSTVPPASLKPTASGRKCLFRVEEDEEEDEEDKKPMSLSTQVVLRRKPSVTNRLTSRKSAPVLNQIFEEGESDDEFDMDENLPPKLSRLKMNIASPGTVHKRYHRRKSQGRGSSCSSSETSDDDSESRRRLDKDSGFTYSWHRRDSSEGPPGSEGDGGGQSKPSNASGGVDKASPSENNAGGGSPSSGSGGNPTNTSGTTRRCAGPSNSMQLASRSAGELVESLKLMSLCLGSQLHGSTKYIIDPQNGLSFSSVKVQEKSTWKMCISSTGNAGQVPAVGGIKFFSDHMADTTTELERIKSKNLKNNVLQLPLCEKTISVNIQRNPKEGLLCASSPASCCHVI
Chain of eIF-2-alpha kinase GCN2 (Homo sapiens), Q9P2K8 [S808G] (Q9P2K8 whole entry S808G): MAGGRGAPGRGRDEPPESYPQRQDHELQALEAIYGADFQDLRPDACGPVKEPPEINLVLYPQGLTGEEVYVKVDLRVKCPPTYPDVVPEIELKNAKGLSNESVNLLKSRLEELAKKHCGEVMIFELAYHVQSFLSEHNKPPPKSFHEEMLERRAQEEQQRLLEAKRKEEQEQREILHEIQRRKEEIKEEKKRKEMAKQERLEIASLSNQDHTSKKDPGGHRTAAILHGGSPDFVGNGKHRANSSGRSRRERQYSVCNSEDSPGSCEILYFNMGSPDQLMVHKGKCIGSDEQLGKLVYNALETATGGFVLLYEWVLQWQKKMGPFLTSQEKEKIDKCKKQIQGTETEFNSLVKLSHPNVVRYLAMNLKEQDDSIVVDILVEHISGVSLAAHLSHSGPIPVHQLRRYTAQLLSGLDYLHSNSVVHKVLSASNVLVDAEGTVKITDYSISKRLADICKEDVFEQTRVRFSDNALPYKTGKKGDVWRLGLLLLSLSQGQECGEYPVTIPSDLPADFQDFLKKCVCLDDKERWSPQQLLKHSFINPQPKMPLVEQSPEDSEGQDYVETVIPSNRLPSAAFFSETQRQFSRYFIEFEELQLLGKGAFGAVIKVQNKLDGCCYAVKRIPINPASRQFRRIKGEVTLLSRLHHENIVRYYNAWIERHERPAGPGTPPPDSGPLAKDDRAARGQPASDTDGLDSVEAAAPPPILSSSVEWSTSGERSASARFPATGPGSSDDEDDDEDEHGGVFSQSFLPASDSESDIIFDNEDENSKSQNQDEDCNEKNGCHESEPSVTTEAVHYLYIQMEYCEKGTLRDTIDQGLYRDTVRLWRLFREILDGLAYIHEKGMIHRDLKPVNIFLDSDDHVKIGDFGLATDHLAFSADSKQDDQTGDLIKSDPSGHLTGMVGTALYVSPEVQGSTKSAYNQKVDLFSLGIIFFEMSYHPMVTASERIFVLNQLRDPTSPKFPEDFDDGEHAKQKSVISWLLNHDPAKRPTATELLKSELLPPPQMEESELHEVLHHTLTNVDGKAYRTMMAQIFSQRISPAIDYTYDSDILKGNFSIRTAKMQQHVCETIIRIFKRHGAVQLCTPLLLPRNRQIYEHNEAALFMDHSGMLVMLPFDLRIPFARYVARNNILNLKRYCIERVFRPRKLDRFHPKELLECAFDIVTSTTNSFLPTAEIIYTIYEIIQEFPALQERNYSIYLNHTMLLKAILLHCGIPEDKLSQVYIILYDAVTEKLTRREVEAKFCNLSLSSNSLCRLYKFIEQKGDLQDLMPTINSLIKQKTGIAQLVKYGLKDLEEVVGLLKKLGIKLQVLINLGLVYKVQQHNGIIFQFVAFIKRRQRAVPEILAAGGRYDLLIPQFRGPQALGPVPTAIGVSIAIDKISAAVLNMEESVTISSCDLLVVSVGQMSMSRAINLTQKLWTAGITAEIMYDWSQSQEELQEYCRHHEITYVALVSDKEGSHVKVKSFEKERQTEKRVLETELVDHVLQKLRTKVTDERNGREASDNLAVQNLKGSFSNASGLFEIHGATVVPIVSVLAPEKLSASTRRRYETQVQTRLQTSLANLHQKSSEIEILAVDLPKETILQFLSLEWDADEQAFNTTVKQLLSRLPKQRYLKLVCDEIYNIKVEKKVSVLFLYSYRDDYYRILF
Chain of Bone morphogenetic protein receptor type-1A (Homo sapiens) (P36894 whole entry): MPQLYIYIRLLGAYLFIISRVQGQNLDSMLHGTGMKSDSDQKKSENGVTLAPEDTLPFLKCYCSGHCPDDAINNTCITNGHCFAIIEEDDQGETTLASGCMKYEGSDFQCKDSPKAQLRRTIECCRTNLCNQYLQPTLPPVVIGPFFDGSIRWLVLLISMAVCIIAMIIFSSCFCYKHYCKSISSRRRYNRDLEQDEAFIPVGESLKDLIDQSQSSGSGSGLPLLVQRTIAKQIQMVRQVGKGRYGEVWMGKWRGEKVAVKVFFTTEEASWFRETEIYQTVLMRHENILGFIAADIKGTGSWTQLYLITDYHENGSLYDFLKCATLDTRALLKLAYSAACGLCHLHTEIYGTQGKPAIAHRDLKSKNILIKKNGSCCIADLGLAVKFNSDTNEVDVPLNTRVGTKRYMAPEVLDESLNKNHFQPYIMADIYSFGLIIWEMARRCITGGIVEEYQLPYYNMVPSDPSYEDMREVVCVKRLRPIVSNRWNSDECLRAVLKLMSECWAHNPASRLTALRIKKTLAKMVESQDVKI
Chain of Dual specificity mitogen-activated protein kinase kinase 5 (Homo sapiens) (Q13163 whole entry): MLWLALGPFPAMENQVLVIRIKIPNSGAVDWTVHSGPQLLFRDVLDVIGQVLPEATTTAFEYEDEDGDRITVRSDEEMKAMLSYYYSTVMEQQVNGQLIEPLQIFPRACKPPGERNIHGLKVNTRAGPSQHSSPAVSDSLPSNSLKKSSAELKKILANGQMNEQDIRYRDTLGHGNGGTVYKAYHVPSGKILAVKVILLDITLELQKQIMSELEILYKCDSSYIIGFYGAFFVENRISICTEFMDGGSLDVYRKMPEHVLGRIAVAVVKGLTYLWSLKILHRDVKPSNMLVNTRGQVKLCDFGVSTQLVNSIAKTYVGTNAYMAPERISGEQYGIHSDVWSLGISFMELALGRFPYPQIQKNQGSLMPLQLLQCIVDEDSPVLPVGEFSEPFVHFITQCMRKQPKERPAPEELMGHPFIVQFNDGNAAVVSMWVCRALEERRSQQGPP
Chain of Tyrosine-protein kinase ABL2 (Homo sapiens) (P42684 whole entry): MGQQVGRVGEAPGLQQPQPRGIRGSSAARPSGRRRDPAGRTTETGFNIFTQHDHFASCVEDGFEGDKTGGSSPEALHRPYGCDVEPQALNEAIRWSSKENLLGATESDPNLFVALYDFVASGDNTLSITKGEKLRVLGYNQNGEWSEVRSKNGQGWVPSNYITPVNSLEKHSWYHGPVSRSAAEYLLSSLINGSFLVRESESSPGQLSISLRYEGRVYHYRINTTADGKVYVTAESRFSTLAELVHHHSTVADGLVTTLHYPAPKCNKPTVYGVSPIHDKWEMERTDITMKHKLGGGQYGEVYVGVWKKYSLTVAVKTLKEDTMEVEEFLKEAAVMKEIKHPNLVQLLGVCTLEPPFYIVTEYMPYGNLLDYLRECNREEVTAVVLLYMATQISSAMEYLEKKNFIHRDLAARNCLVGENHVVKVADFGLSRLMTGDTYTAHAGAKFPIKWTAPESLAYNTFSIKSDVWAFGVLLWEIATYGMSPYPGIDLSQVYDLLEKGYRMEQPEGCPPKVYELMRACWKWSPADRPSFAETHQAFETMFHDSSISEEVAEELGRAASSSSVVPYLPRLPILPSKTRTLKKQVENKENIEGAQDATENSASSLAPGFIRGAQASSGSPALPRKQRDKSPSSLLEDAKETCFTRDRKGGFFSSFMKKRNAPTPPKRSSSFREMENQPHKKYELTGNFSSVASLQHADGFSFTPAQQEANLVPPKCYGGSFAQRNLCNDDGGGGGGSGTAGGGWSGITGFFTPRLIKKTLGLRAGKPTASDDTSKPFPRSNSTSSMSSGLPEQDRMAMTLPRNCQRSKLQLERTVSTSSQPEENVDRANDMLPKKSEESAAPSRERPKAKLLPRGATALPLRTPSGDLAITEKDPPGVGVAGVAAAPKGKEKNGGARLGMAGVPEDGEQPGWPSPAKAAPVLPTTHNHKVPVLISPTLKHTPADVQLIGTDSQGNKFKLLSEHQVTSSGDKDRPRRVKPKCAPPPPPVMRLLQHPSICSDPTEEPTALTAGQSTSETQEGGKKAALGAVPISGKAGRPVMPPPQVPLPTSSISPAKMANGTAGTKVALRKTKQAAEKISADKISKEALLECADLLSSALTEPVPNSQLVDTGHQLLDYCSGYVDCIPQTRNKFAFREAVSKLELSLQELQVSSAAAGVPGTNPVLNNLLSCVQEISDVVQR
Chain of Casein kinase I isoform gamma-3 (Homo sapiens) (Q9Y6M4 whole entry, looked up, canonical isoform): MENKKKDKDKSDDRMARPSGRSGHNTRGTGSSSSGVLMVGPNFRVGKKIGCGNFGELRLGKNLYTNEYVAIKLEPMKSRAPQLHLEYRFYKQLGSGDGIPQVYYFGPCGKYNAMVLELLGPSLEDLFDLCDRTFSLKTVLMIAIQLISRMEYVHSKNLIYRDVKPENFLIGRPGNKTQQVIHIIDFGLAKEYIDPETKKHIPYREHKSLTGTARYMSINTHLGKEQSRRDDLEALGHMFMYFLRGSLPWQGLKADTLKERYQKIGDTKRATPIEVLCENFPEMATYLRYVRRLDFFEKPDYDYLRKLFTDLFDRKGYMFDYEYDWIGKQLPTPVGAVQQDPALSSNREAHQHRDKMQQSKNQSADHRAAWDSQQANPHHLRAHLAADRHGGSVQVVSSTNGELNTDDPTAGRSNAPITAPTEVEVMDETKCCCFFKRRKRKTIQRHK

## Cc1ccc(-c2cnc([C@@]3(O)CC[C@H](C(=O)O)C(C)(C)C3)s2)cc1Nc1cccc(C(F)(F)F)n1 [MRL-SYKi-NC]
[1]
  residual activity: 84.1%
[2]
  residual activity: 100%
[3]
  residual activity: 99.3%
[4]
  residual activity: 100%
[5]
  residual activity: 94.8%
[6]
  residual activity: 85.2%
[7]
  inhibition: -4.56%
[8]
  residual activity: 100%
[9]
  residual activity: 90.1%
[10]
  IC50: 4700 nM (not active)
[11]
  residual activity: 100%
[12]
  residual activity: 94%
[13]
  residual activity: 91.2%
[14]
  residual activity: 100%
[15]
  residual activity: 86.8%
[16]
  residual activity: 100%
[17]
  residual activity: 92.6%
[18]
  residual activity: 93.9%
[19]
  residual activity: 100%
[20]
  residual activity: 95.3%
[21]
  residual activity: 85.7%
[22]
  residual activity: 100%
[23]
  residual activity: 100%
[24]
  residual activity: 100%
[25]
  residual activity: 87.2%
[26]
  inhibition: -2.32%
[27]
  residual activity: 91.3%
[28]
  residual activity: 89.6%
[29]
  residual activity: 75.3%
[30]
  residual activity: 43.1%
[31]
  residual activity: 100%
[32]
  residual activity: 100%
[33]
  residual activity: 64.9%
[34]
  residual activity: 100%
[35]
  residual activity: 84%
[36]
  residual activity: 82.3%
[37]
  residual activity: 89.1%
[38]
  residual activity: 83.8%
[39]
  residual activity: 100%
[40]
  residual activity: 87%
[41]
  residual activity: 98.3%
[42]
  residual activity: 100%
[43]
  residual activity: 73.8%
[44]
  residual activity: 98.6%
[45]
  residual activity: 100%

## Cc1cc(Nc2nccc(C)n2)cc(-c2cnc([C@@]3(O)CC[C@H](C(=O)O)C(C)(C)C3)s2)c1 [MRL-SYKi]
[1]
  residual activity: 66.6%
[2]
  residual activity: 100%
[3]
  residual activity: 100%
[4]
  residual activity: 100%
[5]
  residual activity: 81.7%
[6]
  residual activity: 25.2%
[7]
  inhibition: 10%
[8]
  residual activity: 56.2%
[9]
  residual activity: 100%
[10]
  IC50: 0.9 nM (active)
[11]
  residual activity: 100%
[12]
  residual activity: 61.6%
[13]
  residual activity: 75.2%
[14]
  residual activity: 65.9%
[15]
  residual activity: 100%
[16]
  residual activity: 100%
[17]
  residual activity: 100%
[18]
  residual activity: 73.8%
[19]
  residual activity: 100%
[20]
  residual activity: 100%
[21]
  residual activity: 100%
[22]
  residual activity: 100%
[23]
  residual activity: 100%
[24]
  residual activity: 100%
[25]
  residual activity: 84.6%
[26]
  inhibition: -4.92%
[27]
  residual activity: 64.1%
[28]
  residual activity: 97.1%
[29]
  residual activity: 99.3%
[30]
  residual activity: 100%
[31]
  residual activity: 100%
[32]
  residual activity: 81.3%
[33]
  residual activity: 100%
[34]
  residual activity: 100%
[35]
  residual activity: 96.6%
[36]
  residual activity: 100%
[37]
  residual activity: 99.9%
[38]
  residual activity: 97.9%
[39]
  residual activity: 71.7%
[40]
  residual activity: 78.3%
[41]
  residual activity: 85.8%
[42]
  residual activity: 90.5%
[43]
  residual activity: 100%
[44]
  residual activity: 81.2%
[45]
  residual activity: 85.1%
